The source of these data is ChEMBL document CHEMBL1136559, “Discovery, SAR, synthesis, pharmacokinetic and biochemical characterization of A-192411: a novel fungicidal lipopeptide-(I)” (Bioorg Med Chem Lett, 2003).

≈ marks a conversion by molar mass, not a printed value. Starred links: 1 amine or outer side, 2 acyl side, 3 side chain; linkers in the order of their positions; H or OH if unused. Positions of bridges follow the written chain, without caps; N, C: chain ends. Non-standard residues stand in square brackets, D forms with d. Residues, ends and D or L forms follow the SMILES beside them. *: point of attachment. Pro(cis-4-guanidino) = NC(N)=N[C@@H]1CN[C@H](C(=O)O)C1; hTyr(3-COCH2NH2) = NCC(=O)c1cc(CC[C@H](N)C(=O)O)ccc1O; X3 = CCCCCCCCOc1ccc(N2CCN(c3ccc(C(=O)*)cc3)CC2)cc1; X5 = CCCCCCCCN1CCN(c2ccc(-c3ccc(C(=O)*)cc3)cc2)CC1; X6 = NCC(=O)[C@H]1C[C@@H](C(=O)[*:2])N([*:1])C1; Pro(4S-NH2) = N[C@@H]1CN[C@H](C(=O)O)C1; Hyp = O=C(O)[C@@H]1C[C@@H](O)CN1; Orn = NCCC[C@H](N)C(=O)O

Common to all, as to assay type: functional
For assay [1], the system named is Candida albicans. Nature of the assay: Antifungal activity against Candida albicans 579A. Conditions: Candida albicans; read-out: MIC.
The subject of assay [2] is Kluyveromyces marxianus. Nature of the assay: Antifungal activity against Candida kefyr ATCC 28838. Conditions: Kluyveromyces marxianus, ATCC 28838; read-out: MIC.
For assay [3], the system named is Aspergillus niger. Briefly: Antifungal activity against Aspergillus niger ATCC 16404. Conditions: Aspergillus niger, ATCC 16404; read-out: MIC.
Assay [4] has as its system Nakaseomyces glabratus. Briefly: Antifungal activity against Torulopsis glabrata ATCC 15545. Conditions: Nakaseomyces glabratus, ATCC 15545; read-out: MIC.
The subject of assay [5] is Candida albicans. Briefly: Antifungal activity against Candida albicans CAF-2. Conditions: Candida albicans; read-out: MIC.
Assay [6] concerns Candida albicans. Nature of the assay: Antifungal activity against Candida albicans CCH 442. Conditions: Candida albicans; read-out: MIC.
Assay [7] concerns Candida albicans. Briefly: Antifungal activity against Candida albicans ATCC 62376. Conditions: Candida albicans, ATCC 62376; read-out: MIC.
The subject of assay [8] is [Candida] zeylanoides. Nature of the assay: Antifungal activity against Candida zeylanoides NRRL Y-112. Conditions: Dujonia zeylanoides; read-out: MIC.
The subject of assay [9] is Naganishia albida. Briefly: Antifungal activity against Cryptococcus albidus ATCC 34140. Conditions: Naganishia albida, ATCC 34140; read-out: MIC.
Assay [10] has as its system Candida albicans. Nature of the assay: Antifungal activity against Candida albicans ATCC 10231. Conditions: Candida albicans, ATCC 10231; read-out: MIC.
Assay [11] deals with Candida albicans. Nature of the assay: Antifungal activity against Candida albicans ATCC 38247. Conditions: Candida albicans, ATCC 38247; read-out: MIC.

By MIC is commonly meant the least concentration at which growth counts as inhibited. As for `CCCCCCCCOc1ccc(N2CCN(c3ccc(C(=O)N[C@H]4CCCNC(=O)[C@@H]5C[C@H](N)CN5C(=O)[C@H]([C@@H](C)O)NC(=O)[C@H](CCc5ccc(O)c(C(=O)CN)c5)NC(=O)[C@@H]5C[C@@H](O)CN5C(=O)[C@H]([C@@H](C)O)NC4=O)cc3)CC2)cc1` (X3-[Orn]T[Hyp][hTyr(3-COCH2NH2)]T[Pro(4S-NH2)]; lactam 1-C), the minimum inhibitory concentration (MIC) in assay [1] came out at 0.1 µg/mL (≈ 0.0856 µM); in assay [2], 1.56 µg/mL (≈ 1.34 µM); in [3] it was 1.56 µg/mL (≈ 1.34 µM); in assay [4], 0.2 µg/mL (≈ 0.171 µM); in assay [5], 0.1 µg/mL (≈ 0.0856 µM); in assay [6] it was 0.1 µg/mL (≈ 0.0856 µM). The MIC is 0.1 µg/mL (≈ 0.0856 µM) in assay [7]; 0.1 µg/mL (≈ 0.0856 µM) in [8]; 6.25 µg/mL (≈ 5.35 µM) in [9]; 0.1 µg/mL (≈ 0.0856 µM) in [10]; 0.2 µg/mL (≈ 0.171 µM) in assay [11].
As to `CCCCCCCCOc1ccc(N2CCN(c3ccc(C(=O)N[C@H]4CCCNC(=O)[C@@H]5C[C@H](N=C(N)N)CN5C(=O)[C@H]([C@@H](C)O)NC(=O)[C@H](CCc5ccc(O)c(C(=O)CN)c5)NC(=O)[C@@H]5C[C@@H](O)CN5C(=O)[C@H]([C@@H](C)O)NC4=O)cc3)CC2)cc1` (X3-[Orn]T[Hyp][hTyr(3-COCH2NH2)]T[Pro(cis-4-guanidino)]; lactam 1-C), the MIC is 0.39 µg/mL (≈ 0.322 µM) in assay [1]; 0.78 µg/mL (≈ 0.644 µM) in [2]; 6.25 µg/mL (≈ 5.16 µM) in [3]; 0.78 µg/mL (≈ 0.644 µM) in [4]; 0.1 µg/mL (≈ 0.0826 µM) in [5]; 0.78 µg/mL (≈ 0.644 µM) in assay [6]. Moreover, the MIC is 0.78 µg/mL (≈ 0.644 µM) in [7]; 3.12 µg/mL (≈ 2.58 µM) in assay [8]; 6.25 µg/mL (≈ 5.16 µM) in assay [9]; 0.78 µg/mL (≈ 0.644 µM) in assay [10]; 0.39 µg/mL (≈ 0.322 µM) in [11].
Consider `CCCCCCCCOc1ccc(N2CCN(c3ccc(C(=O)N[C@H]4CCCNC(=O)[C@@H]5C[C@H](C(=O)CN)CN5C(=O)[C@H]([C@@H](C)O)NC(=O)[C@H](CCc5ccc(O)c(C(=O)CN)c5)NC(=O)[C@@H]5C[C@@H](O)CN5C(=O)[C@H]([C@@H](C)O)NC4=O)cc3)CC2)cc1` (X3-[Orn]T[Hyp][hTyr(3-COCH2NH2)]T[X6]; lactam 1-C), for which the MIC was determined as 0.78 µg/mL (≈ 0.644 µM) in assay [1]; 1.56 µg/mL (≈ 1.29 µM) in [2]; 12.5 µg/mL (≈ 10.3 µM) in assay [3]; 1.56 µg/mL (≈ 1.29 µM) in [4]; 0.1 µg/mL (≈ 0.0826 µM) in [5]; 0.78 µg/mL (≈ 0.644 µM) in [6]. Further, the minimum inhibitory concentration (MIC) in assay [7] amounted to 0.39 µg/mL (≈ 0.322 µM); in assay [8] it was 1.56 µg/mL (≈ 1.29 µM); in assay [9] it was 12.5 µg/mL (≈ 10.3 µM); in assay [10], 0.78 µg/mL (≈ 0.644 µM); in assay [11], 0.39 µg/mL (≈ 0.322 µM).
For `CCCCCCCCN1CCN(c2ccc(-c3ccc(C(=O)N[C@H]4CCCNC(=O)[C@@H]5C[C@H](C(=O)CN)CN5C(=O)[C@H]([C@@H](C)O)NC(=O)[C@H](CCc5ccc(O)c(C(=O)CN)c5)NC(=O)[C@@H]5CCCN5C(=O)[C@H]([C@@H](C)O)NC4=O)cc3)cc2)CC1` (X5-[Orn]TP[hTyr(3-COCH2NH2)]T[X6]; lactam 1-C), the MIC in assay [1] was 0.39 µg/mL (≈ 0.331 µM); in [2], 1.56 µg/mL (≈ 1.32 µM); in [3] it was 25 µg/mL (≈ 21.2 µM); in assay [4], 1.56 µg/mL (≈ 1.32 µM); in [5], 0.1 µg/mL (≈ 0.0849 µM); in assay [6] it was 0.39 µg/mL (≈ 0.331 µM). The minimal inhibitory concentration (MIC) in [7] was 0.39 µg/mL (≈ 0.331 µM); in assay [8], 0.2 µg/mL (≈ 0.17 µM); in [9] it was 25 µg/mL (≈ 21.2 µM); in assay [10], 0.39 µg/mL (≈ 0.331 µM); in [11], 0.78 µg/mL (≈ 0.662 µM).
In the case of `CCCCCCCCN1CCN(c2ccc(-c3ccc(C(=O)N[C@H]4CCCNC(=O)[C@@H]5C[C@H](N=C(N)N)CN5C(=O)[C@H]([C@@H](C)O)NC(=O)[C@H](CCc5ccc(O)c(C(=O)CN)c5)NC(=O)[C@@H]5C[C@@H](O)CN5C(=O)[C@H]([C@@H](C)O)NC4=O)cc3)cc2)CC1` (X5-[Orn]T[Hyp][hTyr(3-COCH2NH2)]T[Pro(cis-4-guanidino)]; lactam 1-C), the MIC in assay [1] turned out to be 0.2 µg/mL (≈ 0.167 µM); in assay [2], 1.56 µg/mL (≈ 1.31 µM); in assay [3], 3.12 µg/mL (≈ 2.61 µM); in assay [4], 1.56 µg/mL (≈ 1.31 µM); in assay [5], 0.1 µg/mL (≈ 0.0837 µM); in assay [6], 0.1 µg/mL (≈ 0.0837 µM). The minimal inhibitory concentration (MIC) in [7] stood at 0.2 µg/mL (≈ 0.167 µM); in assay [8] it was 0.2 µg/mL (≈ 0.167 µM); in assay [9], 12.5 µg/mL (≈ 10.5 µM); in [10], 0.2 µg/mL (≈ 0.167 µM); in [11], 0.2 µg/mL (≈ 0.167 µM).
